Data: article PMC9409145, “(-)-Epicatechin Is a Biased Ligand of Apelin Receptor” (International Journal of Molecular Sciences, 2022)

Legend:
[1] = target: T1, apelin receptor (APLNR; APJ), PathHunter eXpress (Homo sapiens, UniProt P35414); assay: beta-arrestin-2 recruitment, enzyme complementation chemiluminescence, specific binding with Hill slope fit; type: cell-based; settings: agonist; apparent constant from functional response, not a radioligand; 1 h incubation; CHO-K1 cells; read-out: Kd
T1 construct: full-length receptor with C-terminal ProLink (beta-galactosidase fragment) tag, stably expressed in CHO-K1 with enzyme-acceptor-tagged beta-arrestin-2
T1 sequence (P35414 1-380): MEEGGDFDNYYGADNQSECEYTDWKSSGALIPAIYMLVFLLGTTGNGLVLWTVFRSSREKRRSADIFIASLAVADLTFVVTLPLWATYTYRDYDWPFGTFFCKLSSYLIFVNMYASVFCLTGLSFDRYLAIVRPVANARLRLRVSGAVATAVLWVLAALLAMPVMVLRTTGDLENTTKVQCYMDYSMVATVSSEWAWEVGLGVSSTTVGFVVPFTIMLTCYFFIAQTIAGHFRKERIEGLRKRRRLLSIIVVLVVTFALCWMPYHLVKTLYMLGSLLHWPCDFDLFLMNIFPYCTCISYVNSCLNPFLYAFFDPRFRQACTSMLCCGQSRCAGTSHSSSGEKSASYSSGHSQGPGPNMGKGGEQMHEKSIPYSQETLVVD
Source text: beta-arrestin-2 recruitment, enzyme complementation chemiluminescence, specific binding with Hill slope fit on apelin receptor (APLNR; APJ), PathHunter eXpress

[2] = target: T2, apelin receptor (mouse skeletal muscle) (Mus musculus, UniProt Q9WV08); assay: affinity chromatography on immobilised epicatechin, MS identification; type: binding; settings: muscle homogenate, 4 °C overnight, PBS pH 7.4; acid elution (MES pH 4.5); immobilised ligand
T2 construct: gene Aplnr
T2 sequence (Q9WV08 1-377): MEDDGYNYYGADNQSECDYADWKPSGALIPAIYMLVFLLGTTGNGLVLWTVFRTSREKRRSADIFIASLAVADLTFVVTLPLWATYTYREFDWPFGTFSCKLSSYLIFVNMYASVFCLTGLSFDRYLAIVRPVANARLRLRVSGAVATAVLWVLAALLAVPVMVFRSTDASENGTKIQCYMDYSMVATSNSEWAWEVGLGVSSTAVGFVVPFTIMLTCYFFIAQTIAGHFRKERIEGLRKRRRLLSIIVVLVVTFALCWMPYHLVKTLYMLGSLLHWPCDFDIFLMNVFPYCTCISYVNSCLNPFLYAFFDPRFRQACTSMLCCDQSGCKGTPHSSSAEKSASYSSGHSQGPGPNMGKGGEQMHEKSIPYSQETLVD

[3] = target: T1, apelin receptor (APLNR; APJ), PathHunter eXpress; assay: beta-arrestin-2 recruitment, enzyme complementation chemiluminescence; type: cell-based; settings: antagonist; cells pre-incubated with ML221, then EC as agonist

EC50 [1] [pM] | SMILES | affinity chromatography on immobilised epicatechin, MS identification [2] | beta-arrestin-2 recruitment, enzyme complementation chemiluminescence [3]
1.76 | Oc1cc(O)c2c(c1)O[C@H](c1ccc(O)c(O)c1)[C@H](O)C2 [EC, (-)-epicatechin] | Five proteins were identified as receptors: apelin receptor | –
– | O=C(Oc1coc(CSc2ncccn2)cc1=O)c1ccc([N+](=O)[O-])cc1 [ML221, 5-[(4-Nitrobenzoyl)oxy]-2-[(2-pyrimidinylthio)methyl]-4H-pyran-4-one] | – | the interaction of the antagonist with the receptor and the blockage of the effect of EC
